Here are results for four compounds from patent US7846972B2, “Multimeric oleamide derivative having connexin-26 inhibiting potency and use thereof in cancer therapy, etc” (The New Industrial Research Organization, priority 2004, dated 2010).

Entries after “also recorded” stand apart in the source; their conditions may differ.

One data set addresses T1, rat connexin 26 (Cx26) (Rattus norvegicus, UniProt P21994).
T1 construct: expressed in transfected cells; host or cells: HeLa cell subclone HeLa-Cx26 (human uterocervical squamous carcinoma)
Put plainly: Dye-transfer assay, GJIC through connexin 26 (HeLa-Cx26). The note with it: for connexin 26 inhibitory activity: result in words. It counts as cell-based. The method, then: (§1) Next, with respect to each oleamide derivative synthesized by the method described above, we studied whether each derivative inhibited connexin 26 (in other words, whether each one inhibited the transfer of a substance from one cell to another through a gap junction formed by the connexin 26). The experimental method was the same as that described in International Publication WO 2004/060398. Each gap junction intercellular communication (GJIC) score of each test substance was evaluated by dye-transfer assay.
(§2) In the same manner as in the method described in the above-mentioned publication, human uterocervical squamaous carcinoma cells (HeLa cells) were used for the experiment. More specifically, HeLa cell subclones (HeLa-Cx26 and HeLa-Cx43) were used, and they stably expressed rat connexin 26 (Cx26) and rat connexin 43 (Cx43), respectively. All cells (including those in the examples described later) were incubated in Dulbecco's modified eagle's medium (DMEM) with 10% fetal calf serum (FCS) added.
(§3) A day before the assay, the HeLa-Cx26 and HeLa-Cx43 cells each were suspended individually in DMEM containing 10% FCS. The respective cells were divided to be cultured as donor cells and recipient cells. The recipient cells were cultured in a culture dish with a diameter of 3 cm and were adjusted to yield subconfluent monolayers at the time of assay.
In the assay, first, both the dyes of calcein (gap junction-permeable) and DiI (gap junction-impermeable) were added to the culture of donor cells at concentrations of 10 μM and 2 μM, respectively, and incubated for one hour. Double-labeled donor cells were trypsinized and washed three times with phosphate-buffered saline. Thereafter each single donor cell was overlaid gently on unlabeled recipient cells. It took one hour for the donor cell to settle over a monolayer. […] Dye transfer from a donor cell to an adjacent recipient cell through a gap junction was observed.
In order to evaluate the inhibitory activity of each test substance with respect to the dye-coupling, one hour after the donor cells were planted, oleamide and the multimeric oleamide derivatives described above each were dissolved in ethanol, and 10 μL thereof was then added to each culture dish so that the final concentration was 20 μM. For control, ethanol diluted 1000 times was added to a culture dish.
In FIG. 2, since the donor cell indicated with a “*” mark contains both the calcein (green fluorescence) and DiI (red fluorescence), it is shown in yellow in the original drawing. Furthermore, when gap junction-permeable calcein is transferred to a recipient cell through a gap junction by the dye coupling, this cell is shown in green. With such an assay, the GJIC score of each test substance is evaluated as follows.
(§4) That is, the evaluation was made as “0” where no dye-coupling of a donor cell is found, “1” where the dye-coupling of a donor cell to an adjacent recipient cell is found, “2” and “3” in cases where calcein that has been transferred to the adjacent recipient cell is transferred to the second and third adjacent cells in a direction away from the donor cell, respectively, and so on. Also, as shown with arrows in the drawing, the extent of cell dyeing was evaluated with four levels of 0.25, 0.5, 0.75, and 1.0 as intermediate levels.
(§5) Such an assay was carried out three times repeatedly. […] Then the average value and standard deviation of the GJIC scores of the respective test substances were calculated. […]

In another data set the target is T2, rat connexin 43 (Cx43) (Rattus norvegicus, UniProt P08050).
T2 construct: expressed in transfected cells; host or cells: HeLa cell subclone HeLa-Cx43 (human uterocervical squamous carcinoma)
Put plainly: Dye-transfer assay, GJIC through connexin 43 (HeLa-Cx43). The class given is cell-based. The note with it: for connexin 43 inhibitory activity: HeLa-Cx43, 20 μM, result in words. The method, then: as §1, §2, §3
In the assay, first, both the dyes of calcein (gap junction-permeable) and DiI (gap junction-impermeable) were added to the culture of donor cells at concentrations of 10 μM and 2 μM, respectively, and incubated for one hour. Double-labeled donor cells were trypsinized and washed three times with phosphate-buffered saline. Thereafter each single donor cell was overlaid gently on unlabeled recipient cells. It took one hour for the donor cell to settle over a monolayer. […]
In FIG. 2, since the donor cell indicated with a “*” mark contains both the calcein (green fluorescence) and DiI (red fluorescence), it is shown in yellow in the original drawing. […] With such an assay, the GJIC score of each test substance is evaluated as follows.
as §4, §5

The subject of data set [1] is BL6 cells (substrains of B16 mouse melanoma cells). The class given is in vivo. The method, then:
The experiment was carried out by the same method as that described in International Publication WO 2004/060398. That is, after subcutaneously inoculating 1×10^5 BL6 cells (substrains of B16 mouse melanoma cells) to a planter of each 4-week-old C57BL/6 mouse, the mice were classified into two groups.
(1) MI-22 administration group: a group of mice subjected to intraperitoneal injection of MI-22 (10 mg) dissolved in olive oil (10 mL) so as to be 0.01 mL per 1 g of the weight of a mouse, once a day (about 0.2 mL per administration) on consecutive days
(2) Nontreatment (Nt) group: a group of mice subjected to no drug administration/treatment by injection.
This treatment was carried out on consecutive days from the next day of the BL6 cells inoculation. When tumors that had formed at the inoculation sites grew to have diameters of about 7 mm, the legs with the tumors were removed by amputation at the knee joints. Then the above-mentioned treatment was carried out for another two days after the amputation. Thereafter the mice were fed without being treated. Four weeks after the amputations at the knee joints, the mice were euthanized, and metastasized tubercles that had formed at the pleura surface in the left and right lungs (the number of foci that metastasized to the lungs) were counted visually. An evaluation was made using 15 mice per each group.

For data set [2], the system named is Az521 cells. Kind of data set: Cytotoxicity assay (cell growth inhibitory potential), trypan blue cell count. It counts as cell-based, human. The note with it: Az521 cells in culture, 6-48 hours, FIG. 6. The method, then: In order to examine the cytotoxicity (cell growth inhibitory potential) of MI-22, approximately 1×10^5 Az521 cells, which were human gastric cancer cells, were plated in each petri dish with a diameter of 3.5 cm and were cultured in the presence or absence (control) of MI-22. Then 6, 12, 24, 36, and 48 hours after the start of culture, the cells in each petri dish were taken off with trypsin-EDTA and then centrifuged. Thereafter the cells were dissolved in 10% FBS-containing DMEM, and then 10 μL of trypan blue was added to 10 μL thereof. After that, the number of cells was counted by the use of a counting chamber. The results are shown in the graphs in FIG. 6. The vertical axis indicates the number of cells, and the horizontal axis indicates the time. The graphs show averages of the results of experiments performed three times.

The test system of data set [3] is Az521 cells. Kind of data set: Cancer growth inhibition (antitumor effect), Az521 cells implanted subcutaneously in nude mice. The class given is in vivo, mouse. The method, then:
Az521 cells, which were human gastric cancer cells, were implanted subcutaneously into the back of each nude mouse. Then the cancer growth inhibitory effect (antitumor effect) provided by MI-22 peritoneal administration was examined. More specifically, 1-2×10^5 Az521 cells were injected subcutaneously into the back of each 4-week-old BALB/c nude mouse (nu/nu). Three days before the subcutaneous implantation, 0.1 mL of a solution containing MI-22 (10 mg) dissolved in olive oil (10 mL) was injected intraperitoneally. After the subcutaneous implantation, MI-22 was administered intraperitoneally in the same manner twice a week. For the control mice group, no drug administration/treatment by injection was carried out.
The sizes of tumors formed after the subcutaneous implantation were observed, and then the antitumor effect of MI-22 was evaluated with the weight of the tumors being measured over time. The results are shown in the graph in FIG. 7. The vertical axis indicates the weight (mg) of tumors, and the horizontal axis indicates the number of days after the subcutaneous implantation. The average values of six tumors are shown with respect to three nude mice.

A short description of data set [4]: Solubility in organic solvent (handling property). The class given is physicochemical.
Where [5] appears, read: HeLa-Cx26, 20 μM, dye-transfer assay.

T2 sequence (P08050 2-382 limits assumed): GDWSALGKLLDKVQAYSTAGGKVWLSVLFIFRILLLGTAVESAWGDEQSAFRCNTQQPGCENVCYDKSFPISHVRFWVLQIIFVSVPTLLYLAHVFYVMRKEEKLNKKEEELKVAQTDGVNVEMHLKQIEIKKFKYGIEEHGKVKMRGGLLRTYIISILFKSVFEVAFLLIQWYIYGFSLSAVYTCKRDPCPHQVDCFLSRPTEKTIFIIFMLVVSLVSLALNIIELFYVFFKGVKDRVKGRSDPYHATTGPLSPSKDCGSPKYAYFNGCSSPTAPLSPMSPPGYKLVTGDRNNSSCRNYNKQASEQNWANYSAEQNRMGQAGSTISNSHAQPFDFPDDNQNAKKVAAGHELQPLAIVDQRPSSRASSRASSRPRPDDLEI

With `CCCCCCCC[C@H]1O[C@H]1CCCCCCCC(=O)NCCCCN(CCCNC(=O)CCCCCCC[C@@H]1O[C@@H]1CCCCCCCC)C(=O)CCCCCCC[C@@H]1O[C@@H]1CCCCCCCC` (relative stereo) [MI-51, N^1-{3-[8-{(2S*,3R*)-3-Octyl-oxiranyl}-octanoyl]-N-[4-{8[(2S*,3R*)-3-octyl-oxiranyl]-octanoylamino}-butyl]-aminopropyl}-{8-(2S*,3R*)-3-octyl-oxiranyl}octanamide], the “connexin 26 inhibitory activity as compared to the control by visual observation” value on rat connexin 26 (Cx26) (HeLa-Cx26, 20 μM, visual observation) is listed as “found to have a connexin 26 inhibitory activity”.
Take `CCCCCCCC/C=C\CCCCCCC(CCCC(CCCCCC/C=C\CCCCCCCC)C(=O)N(CC)CC)C(=O)N(CC)CC` (stereo not drawn) [MI-22, N^1,N^1,N^7,N^7-Tetraethyl-2,6-di[(Z)-7-hexadecenyl]-heptanediamide]: the “connexin 26 inhibitory activity” value on rat connexin 26 (Cx26) (setting [5]) was “strong connexin 26 inhibitory activity; also recorded: strong connexin 26 inhibitory activities”. For the same compound, the “GJIC score obtained through connexin 26” value at rat connexin 26 (Cx26) (HeLa-Cx26, final concentration 20 μM, dye-transfer assay, FIG. 3) is given as no more than 2. Also, at rat connexin 43 (Cx43), the “connexin 43 inhibitory activity” value is given as “no connexin 43 inhibitory activity; also recorded: hardly inhibited the function of connexin 43; also recorded: no effect of inhibiting connexin 43 was found”. In addition, the “GJIC score obtained through connexin 43” value at rat connexin 43 (Cx43) (HeLa-Cx43, final concentration 20 μM, FIG. 3) is recorded as “almost the same as that of a control”. For the same compound, in data set [1] (C57BL/6 mice, intraperitoneal once a day), the “spontaneous metastasis of cancer vs nontreatment (Nt) group, result in words” value is reported as “inhibited/suppressed spontaneous metastasis of cancer conspicuously”. In addition, the “decrease of the number of metastatic foci in the lungs vs nontreatment (Nt) group” value in data set [1] (C57BL/6 mice, intraperitoneal once a day, 4 weeks after amputation, FIG. 4) was 80%. In addition, the “number of mice with lungs with slight spontaneous metastasis” value in data set [1] (of 15 mice per group, FIG. 5 (Nt group: eight)) was “six”. For the same compound, the “number of mice with lungs with considerable spontaneous metastasis” value in data set [1] (of 15 mice per group, FIG. 5 (Nt group: five)) is “two”. In addition, the “number of mice with lungs with no spontaneous metastasis of cancer” value in data set [1] (of 15 mice per group, FIG. 5 (Nt group: two)) is “seven”. The “cytotoxicity (cell growth inhibitory potential), number of cells vs control” value in the data set with Az521 cells [2] is “no significant difference between MI-22 and control; also recorded: not found”. The “growth of tumors (weight of tumors) vs control mice group” value with Az521 cells [3] (BALB/c nude mice, intraperitoneal twice a week, FIG. 7) was “suppressed conspicuously”. The “increase in the volume of tumors vs nontreatment mice group (NT)” value in the data set with Az521 cells [3] (nude mice, intraperitoneal, FIG. 8) is given as “suppressed conspicuously”. In data set [4], the “solubility in an organic solvent” value is “dissolves well in an organic solvent”.
As to `CCCCCCCC/C=C\CCCCCCC(CCCCCC(CCCCCC/C=C\CCCCCCCC)C(=O)N(CC)CC)C(=O)N(CC)CC` (stereo not drawn) [MI-39, N^1,N^1,N^9,N^9-Tetraethyl-2,8-di[(Z)-7-hexadecenyl]nonanediamide], the “connexin 26 inhibitory activity” value on rat connexin 26 (Cx26) (setting [5]) is listed as “strong connexin 26 inhibitory activity; also recorded: strong connexin 26 inhibitory activities”. The “connexin 43 inhibitory activity” value at rat connexin 43 (Cx43) is “no connexin 43 inhibitory activity; also recorded: hardly inhibited the function of connexin 43”.
Regarding `CCCCCCCC/C=C\CCCCCCCC(=O)NCCCNC(=O)CCCCCCC/C=C\CCCCCCCC` [MI-45, N^1-[(Z)-3-Octadec-9-enoylaminopropyl]-(Z)-9octadecenamide], on rat connexin 26 (Cx26) (setting [5]), the “connexin 26 inhibitory activity” value is “strong connexin 26 inhibitory activity; also recorded: strong connexin 26 inhibitory activities”. For the same compound, the “connexin 43 inhibitory activity” value on rat connexin 43 (Cx43) is recorded as “no connexin 43 inhibitory activity; also recorded: hardly inhibited the function of connexin 43”.
